Experimental data from ChEMBL document CHEMBL3875180, “8-Thioalkyl-adenosine derivatives inhibit Listeria monocytogenes NAD kinase through a novel binding mode” (Eur J Med Chem, 2016).

How the values were obtained:
[1] = Ratio of Ki for human NADK harboring Listeria monocytogenes NADK1 segment 1 expressed in Escherichia coli BL21(DE3) to Ki for human NADK expressed in Escherichia coli BL21(DE3)
NAD kinase [2] = biological target: T1, NAD kinase (Staphylococcus aureus (strain COL), UniProt Q5HH78); experiment: Inhibition of Staphylococcus aureus COL NADK expressed in Escherichia coli BL21(DE3) assessed as reduction in NADP production using NAD as substrate by glucose-6-phosphate dehydrogenase coupled enzyme based spectrophotometric method; parameters: species or system Staphylococcus aureus subsp. aureus COL
T1 sequence (Q5HH78 whole entry): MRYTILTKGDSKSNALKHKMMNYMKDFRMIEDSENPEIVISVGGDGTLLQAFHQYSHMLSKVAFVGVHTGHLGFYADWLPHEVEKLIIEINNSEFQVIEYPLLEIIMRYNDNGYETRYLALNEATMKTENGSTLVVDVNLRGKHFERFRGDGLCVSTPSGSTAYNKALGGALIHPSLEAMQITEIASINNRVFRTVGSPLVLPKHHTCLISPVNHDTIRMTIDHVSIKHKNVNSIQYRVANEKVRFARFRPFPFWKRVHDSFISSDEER

[3] = Competitive inhibition of Listeria monocytogenes C-terminal His6-tagged NADK1 expressed in Escherichia coli BL21(DE3) assessed as reduction in NADP production using varying levels of NAD as substrate by glucose-6-phosphate dehydrogenase coupled enzyme based spectrophotometric method
[4] = Cytotoxicity against human MRC5 cells up to 1 x 10^-4M; format: toxicity, cell-based
NAD kinase [5] = biological target: T2, NAD kinase (Homo sapiens, UniProt O95544); experiment: Inhibition of human NADK expressed in Escherichia coli BL21(DE3) assessed as reduction in NADP production using NAD as substrate by glucose-6-phosphate dehydrogenase coupled enzyme based spectrophotometric method
T2 sequence (O95544 whole entry): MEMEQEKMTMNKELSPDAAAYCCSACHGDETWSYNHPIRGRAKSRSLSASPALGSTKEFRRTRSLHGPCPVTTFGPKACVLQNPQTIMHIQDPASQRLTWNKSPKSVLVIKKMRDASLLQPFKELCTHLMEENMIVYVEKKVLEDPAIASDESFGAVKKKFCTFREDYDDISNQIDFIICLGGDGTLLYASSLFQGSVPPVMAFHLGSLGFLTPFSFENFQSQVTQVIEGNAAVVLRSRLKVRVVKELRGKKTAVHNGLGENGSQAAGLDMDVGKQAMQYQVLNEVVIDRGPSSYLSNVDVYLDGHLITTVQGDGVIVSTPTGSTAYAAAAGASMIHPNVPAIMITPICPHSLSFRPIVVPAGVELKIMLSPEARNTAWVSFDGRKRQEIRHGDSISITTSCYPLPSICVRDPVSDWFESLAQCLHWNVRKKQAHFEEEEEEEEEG

[6] = biological target: T3, NAD kinase (Homo sapiens) (UniProt O95544); experiment: (§1) Inhibition of human NADK expressed in Escherichia coli BL21(DE3) assessed as reduction in NADP production at 500 uM using NAD as substrate by glucose-6-phosphate dehydrogenase coupled enzyme based spectrophotometric method relative to control
T3 sequence (whole entry): T2 sequence (O95544 whole entry)

[7] = biological target: T3, NAD kinase (Homo sapiens); experiment: Inhibition of human NADK expressed in Escherichia coli BL21(DE3) assessed as reduction in NADP production at 400 uM using NAD as substrate by glucose-6-phosphate dehydrogenase coupled enzyme based spectrophotometric method relative to control
[8] = biological target: T3, NAD kinase (Homo sapiens); experiment: Inhibition of human NADK expressed in Escherichia coli BL21(DE3) assessed as reduction in NADP production at 250 uM using NAD as substrate by glucose-6-phosphate dehydrogenase coupled enzyme based spectrophotometric method relative to control
Listeria monocytogenes = experiment: as §1, with “Listeria monocytogenes C-terminal His6-tagged NADK1” for “human NADK”, “300” for “500”, “control relative to control” for “control”

Row | SMILES | Ki [3] | Activity [4] | Ki (NAD kinase [5]) | other results
1 | [N-]=[N+]=NC[C@H]1O[C@@H](n2c(SCC(=O)NCCc3ccccc3)nc3c(N)ncnc32)[C@H](O)[C@@H]1O | 5 µM | Non-Toxic | 350 µM | Ratio Ki [1]: 3; IC50 (NAD kinase [2]): > 400 µM
2 | Nc1ncnc2c1nc(SCC(=O)NCCc1c[nH]c3ccccc13)n2[C@@H]1O[C@H](CO)[C@@H](O)[C@H]1O | 2 µM | Non-Toxic | – | inhibition [6]: 20%
3 | Nc1ncnc2c1nc(SCC(=O)NCCc1ccccc1)n2[C@@H]1O[C@H](CO)[C@@H](O)[C@H]1O | 140 µM | Non-Toxic | – | IC50 (NAD kinase [2]): > 400 µM; inhibition [7]: 10%
4 | Nc1ncnc2c1nc(SCCC(=O)NCCc1cccc(Br)c1)n2[C@@H]1O[C@H](CO)[C@@H](O)[C@H]1O | 50 µM | Non-Toxic | – | IC50 (NAD kinase [2]): > 400 µM
5 | Nc1ncnc2c1nc(SCC(=O)NCCc1cccc(Br)c1)n2[C@@H]1O[C@H](CO)[C@@H](O)[C@H]1O | 2 µM | Non-Toxic | 335 µM | IC50 (NAD kinase [2]): > 400 µM
6 | Nc1ncnc2c1nc(SCC(=O)NCCc1ccc(Cl)c(Cl)c1)n2[C@@H]1O[C@H](CO)[C@@H](O)[C@H]1O | 22 µM | Non-Toxic | 425 µM | –
7 | NC[C@H]1O[C@@H](n2c(SCC(=O)NCCc3ccc(Cl)c(Cl)c3)nc3c(N)ncnc32)[C@H](O)[C@@H]1O | 2 µM | Non-Toxic | 130 µM | –
8 | Cn1cc(CCNC(=O)CSc2nc3c(N)ncnc3n2[C@@H]2O[C@H](CN=[N+]=[N-])[C@@H](O)[C@H]2O)c2ccccc21 | 0.4 µM | Non-Toxic | 350 µM | –
9 | CN(C)S(=O)(=O)NC[C@H]1O[C@@H](n2c(SCC(=O)NCCc3ccc(Cl)c(Cl)c3)nc3c(N)ncnc32)[C@H](O)[C@@H]1O | 3.5 µM | Non-Toxic | 160 µM | –
10 | Nc1ncnc2c1nc(SCC(=O)NCCc1ccc(Br)cc1)n2[C@@H]1O[C@H](CO)[C@@H](O)[C@H]1O | 30 µM | Non-Toxic | 250 µM | –
11 | [N-]=[N+]=NC[C@H]1O[C@@H](n2c(SCC(=O)NCCc3ccc4ccccc4c3)nc3c(N)ncnc32)[C@H](O)[C@@H]1O | 5 µM | Non-Toxic | 140 µM | –
12 | C[C@H]1O[C@@H](n2c(SCC(=O)NCCc3ccc(Cl)c(Cl)c3)nc3c(N)ncnc32)[C@H](O)[C@@H]1O | 1.5 µM | Non-Toxic | 180 µM | –
13 | [N-]=[N+]=NC[C@H]1O[C@@H](n2c(SCC(=O)NCCc3ccc(Br)cc3)nc3c(N)ncnc32)[C@H](O)[C@@H]1O | 0.5 µM | Non-Toxic | – | –
14 | COc1ccc2[nH]cc(CCNC(=O)CSc3nc4c(N)ncnc4n3[C@@H]3O[C@H](CO)[C@@H](O)[C@H]3O)c2c1 | 40 µM | Non-Toxic | – | –
15 | COc1ccc2[nH]cc(CCNC(=O)CSc3nc4c(N)ncnc4n3[C@@H]3O[C@H](CN=[N+]=[N-])[C@@H](O)[C@H]3O)c2c1 | 5 µM | Non-Toxic | 160 µM | –
16 | Nc1ncnc2c1nc(SCC(=O)NCCc1cccc(Cl)c1)n2[C@@H]1O[C@H](CO)[C@@H](O)[C@H]1O | 30 µM | Non-Toxic | 200 µM | –
17 | [N-]=[N+]=NC[C@H]1O[C@@H](n2c(SCC(=O)NCCCc3ccccc3)nc3c(N)ncnc32)[C@H](O)[C@@H]1O | 55 µM | Non-Toxic | 150 µM | IC50 (NAD kinase [2]): > 400 µM

Row | SMILES | Ki [3] | Activity [4] | Ki (NAD kinase [5]) | other results
18 | [N-]=[N+]=NC[C@H]1O[C@@H](n2c(SCC(=O)NCCc3nc4ccccc4[nH]3)nc3c(N)ncnc32)[C@H](O)[C@@H]1O | 23 µM | Non-Toxic | 525 µM | –
19 | C#CCNC(=O)CSc1nc2c(N)ncnc2n1[C@@H]1O[C@H](CN=[N+]=[N-])[C@@H](O)[C@H]1O | 30 µM | Non-Toxic | 140 µM | IC50 (NAD kinase [2]): > 400 µM
20 | Nc1ncnc2c1nc(SCC(=O)NCCc1c[nH]c3ccc(Cl)cc13)n2[C@@H]1O[C@H](CO)[C@@H](O)[C@H]1O | 0.25 µM | Non-Toxic | 775 µM | –
21 | [N-]=[N+]=NC[C@H]1O[C@@H](n2c(SCC(=O)NCCc3ccc(Cl)c(Cl)c3)nc3c(N)ncnc32)[C@H](O)[C@@H]1O | 0.1 µM | Non-Toxic | 140 µM | –
22 | [N-]=[N+]=NC[C@H]1O[C@@H](n2c(SCC(=O)NCCc3c[nH]c4ccccc34)nc3c(N)ncnc32)[C@H](O)[C@@H]1O | 0.5 µM | Non-Toxic | 140 µM | –
23 | C#Cc1cccc(CCNC(=O)CSc2nc3c(N)ncnc3n2[C@@H]2O[C@H](CN=[N+]=[N-])[C@@H](O)[C@H]2O)c1 | 6 µM | Non-Toxic | – | inhibition [8]: 20%
24 | [N-]=[N+]=NC[C@H]1O[C@@H](n2c(SCC(=O)NCc3cccc(Br)c3)nc3c(N)ncnc32)[C@H](O)[C@@H]1O | 25 µM | Non-Toxic | – | IC50 (NAD kinase [2]): > 400 µM
25 | Nc1ncnc2c1nc(SCC(=O)NCCc1ccc(Cl)cc1)n2[C@@H]1O[C@H](CO)[C@@H](O)[C@H]1O | 40 µM | Non-Toxic | – | inhibition [6]: 20%
26 | [N-]=[N+]=NC[C@H]1O[C@@H](n2c(SCC(=O)NCCc3c[nH]c4ccc(Cl)cc34)nc3c(N)ncnc32)[C@H](O)[C@@H]1O | 0.3 µM | Non-Toxic | – | –
27 | [N-]=[N+]=NC[C@H]1O[C@@H](n2c(SCC(=O)NCCc3ccc(C(F)(F)F)cc3)nc3c(N)ncnc32)[C@H](O)[C@@H]1O | 7.5 µM | Non-Toxic | 230 µM | –
28 | [N-]=[N+]=NC[C@H]1O[C@@H](n2c(SCC(=O)NCCc3ccc(Cl)cc3)nc3c(N)ncnc32)[C@H](O)[C@@H]1O | 0.5 µM | Non-Toxic | 210 µM | –
29 | Nc1ncnc2c1nc(SCC(=O)NCCc1ccc(C(F)(F)F)cc1)n2[C@@H]1O[C@H](CO)[C@@H](O)[C@H]1O | 10 µM | Non-Toxic | – | –
30 | NC[C@H]1O[C@@H](n2c(SCC(=O)NCCc3ccc(Br)cc3)nc3c(N)ncnc32)[C@H](O)[C@@H]1O | 55 µM | Non-Toxic | 130 µM | –
31 | CCNC(=O)NC[C@H]1O[C@@H](n2c(SCC(=O)NCCc3ccc(Cl)c(Cl)c3)nc3c(N)ncnc32)[C@H](O)[C@@H]1O | 3 µM | Non-Toxic | – | inhibition [8]: 10%
32 | [N-]=[N+]=NC[C@H]1O[C@@H](n2c(SCC(=O)NCc3ccnc(Cl)c3)nc3c(N)ncnc32)[C@H](O)[C@@H]1O | – | Non-Toxic | 220 µM | inhibition (Listeria monocytogenes): 20%; IC50 (NAD kinase [2]): > 400 µM
33 | [N-]=[N+]=NC[C@H]1O[C@@H](n2c(SCC(=O)NCCc3cccc(Cl)c3)nc3c(N)ncnc32)[C@H](O)[C@@H]1O | 0.75 µM | Non-Toxic | – | –
34 | [N-]=[N+]=NC[C@H]1O[C@@H](n2c(SCC(=O)NCCc3cccc(C(F)(F)F)c3)nc3c(N)ncnc32)[C@H](O)[C@@H]1O | 6.5 µM | Non-Toxic | 300 µM | –
